Source: patent publication US10729655B2, “Orally disintegrating tablets” (AstraZeneca AB, priority 2016, dated 2020)

How the values were obtained:
[1] = Relative bioavailability study (clinical study A), plasma pharmacokinetics of ticagrelor and AR-C124910XX; assay type: in vivo, healthy male and female subjects
Experimental: A relative bioavailability study (hereafter referred to as clinical study A) compared the orodispersible tablet of Example 7, administered with water (after oral dispersion) and without water, to a film-coated tablet containing 90 mg of ticagrelor. In clinical study A the orodispersible tablet was also suspended in water and administered through a nasogastric tube and compared to the film-coated tablet.
This study was an open-label, randomised, four-period, four-treatment, crossover study in healthy male and female of non-childbearing potential subjects, performed at a single study centre. The study was comprised of: • A screening period of maximum 21 days; • Four treatment periods during which subjects were resident prior to the evening meal the night before dosing with ticagrelor (Day −1) until at least 48 hours after dosing; discharged on the morning of Day 3; and • A final visit within 5 to 10 days after the last administration of ticagrelor.
Subjects received single doses of ticagrelor in 4 different ways under fasted conditions. Following an overnight fast of at least 10 hours, each subject received a single dose of each treatment on 4 occasions, respectively.
The PK parameters were assessed for ticagrelor (parent) and its active metabolite AR-C124910XX based on plasma concentrations.
Pharmacokinetic parameters were summarised for each treatment using descriptive statistics. Where possible, the following descriptive statistics were presented: n, geometric mean, geometric CV, arithmetic mean, arithmetic standard deviation, median, minimum and maximum. For tmax, only n, median, minimum and maximum were presented.
Bioavailability comparison of treatments A, B and C (test product) and D (reference product) were assessed on the ratio of log-transformed Cmax, AUC0-t, and AUC of both ticagrelor and AR-C124910XX using a 2-sided 90% confidence interval (CI) approach based on an analysis of variance (ANOVA) model including fixed effects for treatment, sequence, period and subject within sequence.
All PK parameters were log-transformed prior to analysis. The estimated treatment differences and the 90% CIs on the log scale were back transformed to obtain the geometric mean ratios for each pair of treatments.

[2] = Focused Beam Reflectance Measurement (FBRM) of granules in dissolution bath; assay type: physicochemical; conditions: granules stored at 40° C. and 75% RH for one month
Experimental: Focused Beam Reflectance Measurement (FBRM) analyses were conducted in dissolution studies. The FBRM technique involves the insertion of a probe directly into a process stream, at an angle, to ensure particles can flow easily across the probe window where the measurement takes place. A laser beam is launched down the probe tube through a set of optics and focused to a tight beam spot at the sapphire window. The optics rotate at a fixed speed (typically 2 m/s) resulting in the beam spot rapidly scanning across particles as they flow past the window. As the focused beam scans across the particle system, individual particles or particle structures will backscatter the laser light to the detector. These distinct pulses of backscattered light are detected, counted, and the duration of each pulse is multiplied by the scan speed to calculate the distance across each particle. This distance is defined as the chord length, a fundamental measurement of the particle related to the particle size, and a precise and highly sensitive chord length distribution can be reported in real time, thus tracking how particle size and count change over time. […]
The integration time was set to 5 seconds. […] From that dataset kinetic curves were calculated showing different size fractions and the fraction 40-100 μm was the fraction selected for comparison. […]

[3] = Mercury intrusion porosimetry (pore volume, pore size distribution); assay type: physicochemical
Experimental: The pore volume and the pore size distribution were determined using mercury intrusion porosimetry (Micromeritics AutoPore III 9410). The determination was performed within the pore diameter interval 115 μm≥ϕ≥0.0030 μm (30 Å). The surface tension and the contact angle of mercury are set to 485 mN/m and 130°, respectively. Blank correction has been used to compensate for compaction of parts of the penetrometer system at high pressures. The test materials used were: ticagrelor granules (“3606”), final tablet blend (“3606 FB”); F-melt type C granules (“F-melt”); Ticagrelor particles from supplier 1 (“AZ”); Ticagrelor particles from supplier 2 (“DSM”); Ticagrelor particles from supplier 3 (“Omnichem”).
One of the penetrometers used for analysis of the granules was used for the reference test. The result gave a cumulative pore volume of 0.55 cm^3/g and a median pore diameter (based on volume) of 73 Å. The reference values are 0.56±0.02 cm^3/g and 75±5 Å, respectively.

[4] = Powder flow indices (Carr's index, Hausner ratio); assay type: physicochemical; conditions: ticagrelor powders
Text: Ticagrelor powders are characterised by poor flowability, for example as indicated by a large Hausner ratio (tap density/bulk density ˜1.8-2.0).

[5] = plasma, single 90 mg ticagrelor dose, fasted, range across treatments
[6] = pores <8, post-storage 1 month at 40° C./75% RH
[7] = pores >8, post-storage 1 month at 40° C./75% RH

Row | median tmax ([1]; plasma, single 90 mg ticagrelor dose, fasted, across OD (with water, without water, NG tube) and IR tablets) | terminal mean t1/2λz [1, 5] | Plasma metabolite AUC as % of plasma ticagrelor AUC ([1]; range across treatments) | Plasma metabolite Cmax as % of plasma ticagrelor Cmax ([1]; range across treatments) | Particle dissolution by FBRM after storage compared with non-stored granules [2] | Median pore diameter (vol) [3, 6] | Pore area [3, 6] | Pore volume [3, 6] | Median pore diameter (vol) ([3]; pores <8, pre-storage) | Pore area ([3]; pores <8, pre-storage) | Pore volume ([3]; pores <8, pre-storage) | Median pore diameter (vol) [3, 7] | Pore area [3, 7] | Pore volume [3, 7] | Median pore diameter (vol) ([3]; pores >8, pre-storage) | Pore area ([3]; pores >8, pre-storage) | Pore volume ([3]; pores >8, pre-storage) | Tmax ([1]; both sexes, human, oral, plasma, single 90 mg ticagrelor dose, fasted, across OD (with water, without water, NG tube) and IR tablets, read-out: median tmax) | Hausner ratio (tap density/bulk density) [4] | Compound
1 | 2 to 3 h | 9.35 to 9.48 h | 38.2-40.5% | 27.1-30.0% | – | – | – | – | – | – | – | – | – | – | – | – | – | – | – | CCCSc1nc(N[C@@H]2C[C@H]2c2ccc(F)c(F)c2)c2nnn([C@@H]3C[C@H](O)[C@@H](O)[C@H]3O)c2n1 [AR-C124910XX]
2 | – | – | – | – | slower particle dissolution | 1.1 μm | 14 m^2/g | 0.23 cm^3/g | 0.9 μm | 14 m^2/g | 0.23 cm^3/g | 27 μm | 0.1 m^2/g | 0.69 cm^3/g | 24 μm | 0.1 m^2/g | 0.62 cm^3/g | – | – | CCCSc1nc(N[C@@H]2C[C@H]2c2ccc(F)c(F)c2)c2nnn([C@@H]3C[C@H](OCCO)[C@@H](O)[C@H]3O)c2n1 [AZ]
3 | – | – | – | – | – | 1.5 μm | 12 m^2/g | 0.29 cm^3/g | 1.2 μm | 13 m^2/g | 0.28 cm^3/g | 20 μm | 0.1 m^2/g | 0.64 cm^3/g | 19 μm | 0.1 m^2/g | 0.59 cm^3/g | – | – | CCCSc1nc(N[C@@H]2C[C@H]2c2ccc(F)c(F)c2)c2nnn([C@@H]3C[C@H](OCCO)[C@@H](O)[C@H]3O)c2n1 [DSM]
4 | – | – | – | – | – | 0.5 μm | 9 m^2/g | 0.18 cm^3/g | 0.5 μm | 12 m^2/g | 0.28 cm^3/g | 36 μm | <0.1 m^2/g | 0.61 cm^3/g | 35 μm | <0.1 m^2/g | 0.53 cm^3/g | – | – | CCCSc1nc(N[C@@H]2C[C@H]2c2ccc(F)c(F)c2)c2nnn([C@@H]3C[C@H](OCCO)[C@@H](O)[C@H]3O)c2n1 [Omnichem]
5 | – | 7.99 to 8.21 h | – | – | – | – | – | – | – | – | – | – | – | – | – | – | – | ~2 h | 1.8-2.0 | CCCSc1nc(N[C@@H]2C[C@H]2c2ccc(F)c(F)c2)c2nnn([C@@H]3C[C@H](OCCO)[C@@H](O)[C@H]3O)c2n1 [ticagrelor, (1S,2S,3R,5S)-3-[7-{[(1R,2S)-2-(3,4-difluorophenyl)cyclopropyl]amino}-5-(propylthio)-3H[1,2,3]-triazolo[4,5-d]pyrimidin-3-yl]-5-(2-hydroxyethoxy)cyclopentane-1,2-diol]
